Where two headings read alike, the source gives them in different places.
Columns and labels:
H1299 p53 R273H = experiment: Cell Proliferation Assay (CellTiter-Glo, CTG), H1299 p53 R273H (NClH1299-inducible p53 R273H); assay type: cell-based; conditions: Homo sapiens, NCI-H1299, 120 h, NClH1299-inducible p53 R273H cells, 5 days, CellTiter-Glo
How it was run: (§1)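 Cells seeded at 250-500 per well and exposed to compound for 5 days. Viability read by CellTiter-Glo luminescence after 10 min at room temperature; IC50 calculated. H1299 lines carry Tet-One inducible p53 mutant constructs introduced by lentiviral transduction.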

[1] = molecular target: T1, p53 Y220C mutant protein (amino acid residues 94-293) (Homo sapiens, UniProt P04637, Y220C); experiment: Surface Plasmon Resonance (SPR) assay, Kd_kinetic; assay type: binding; conditions: read-out: SPR P53 Y220C KD kinetic
T1 construct: p53 Y220C mutant protein (amino acid residues 94-293)
T1 sequence (P04637 94-293, stated change not applied): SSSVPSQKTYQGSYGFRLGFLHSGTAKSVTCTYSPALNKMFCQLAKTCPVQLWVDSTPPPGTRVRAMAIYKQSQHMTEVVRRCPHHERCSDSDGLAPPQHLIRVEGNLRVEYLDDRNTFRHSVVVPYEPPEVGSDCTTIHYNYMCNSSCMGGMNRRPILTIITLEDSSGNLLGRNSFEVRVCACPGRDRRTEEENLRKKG
How it was run: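 Binding measured by SPR on a Biacore 8K in running buffer of 50 mM Tris pH 7.5, 100 mM NaCl, 1 mM DTT, 0.01% Brij35, 0.05% Tween-20, 1% DMSO.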

p53 Y220C = p53 Y220C (Homo sapiens, UniProt P04637, Y220C); experiment: Luciferase Reporter Assay (Luc), p53 response element, NClH1299 cells with inducible p53 Y220C; assay type: cell-based; conditions: luciferase reporter, NClH1299 inducible p53 Y220C, 6 hour; for AC50: read-out: Luc P53 Y220C AC50
How it was run: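 Doxycycline (0.5 ug/mL, 24 h) induces the mutant before a 6-hour compound treatment. Reporter activity is then quantified by One-Glo luminescence.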

H1299 p53 Y220C = experiment: Cell Proliferation Assay (CellTiter-Glo, CTG), H1299 p53 Y220C (NClH1299-inducible p53 Y220C); assay type: cell-based; conditions: Homo sapiens, NCI-H1299, 120 h, NClH1299-inducible p53 Y220C cells, 5 days, CellTiter-Glo
How it was run: as §1

NUGC3 p53 Y220C = experiment: Cell Proliferation Assay (CellTiter-Glo, CTG), NUGC3 p53 Y220C; assay type: cell-based; conditions: Homo sapiens, NUGC-3, 120 h, NUGC3 cells, 5 days, CellTiter-Glo
How it was run: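 NClH1299 lines stably transduced with Tet-inducible p53 Y220C or R273H, plus NUGC3, were treated with compound for 5 days at 250-500 cells/well. IC50 derived from CellTiter-Glo luminescent signal after 10 min room-temperature incubation.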

SMILES | IC50 (H1299 p53 R273H) [µM] | Kd ([1]; SPR, p53 Y220C) [µM] | AC50 (p53 Y220C) [µM] | Emax (p53 Y220C) [%] | IC50 (H1299 p53 Y220C) [µM] | Kd [1] [µM] | IC50 (NUGC3 p53 Y220C) [µM]
CCc1ncc(C(=O)NC)cc1NCC#Cc1nc2c(N[C@@H]3CCN(C)C[C@@H]3F)cccn2c1SC(F)(F)F [Example 273] | ≥ 10 | < 0.01 | < 0.75 | > 90 | < 0.75 | – | < 0.75
CNC(=O)c1cnc(C)c(NCC#Cc2nc3c(N[C@@H]4CCN(C)C[C@@H]4F)cccn3c2SC(F)(F)F)c1 [Example 274] | ≥ 10 | < 0.01 | < 0.75 | > 90 | < 0.75 | – | < 0.75
CNC(=O)c1ccc(NCC#Cc2nc3c(N[C@@H]4CCOC[C@@H]4F)cccn3c2SC(F)(F)F)c(OC2CN(C)C2)c1 [Example 275, 4-{[3-(8-{[(3R,4R)-3-fluorooxan-4-yl]amino}-3-[(trifluoromethyl)sulfanyl]imidazo[1,2-a]pyridin-2-yl)prop-2-yn-1-yl]amino}-N-methyl-3-[(1-methylazetidin-3-yl)oxy]benzamide] | 5 to 8 | < 0.01 | < 0.75 | 80 to 90 | < 0.75 | – | < 0.75
COc1ncc(C(N)=O)cc1NCC#Cc1nn2c(N[C@@H]3CCN(C)C[C@@H]3F)cccc2c1SC(F)(F)F [Example 276] | < 5 | < 0.01 | < 0.75 | 80 to 90 | < 0.75 | – | < 0.75
CNC(=O)c1cnc(OC)c(NCC#Cc2nc3c(N[C@@H]4CCN(C)C[C@@H]4F)cccn3c2SC(F)F)c1 [Example 278] | < 5 | < 0.01 | < 0.75 | 70 to 80 | < 0.75 | – | < 0.75
COc1cc(C(N)=O)ccc1NCC#Cc1nn2c(N[C@@H]3CCN(C)C[C@@H]3F)cccc2c1SC(F)F [Example 286] | ≥ 10 | < 0.01 | < 0.75 | > 90 | < 0.75 | – | < 0.75
CNC(=O)c1ccc(NCC#Cc2cc3c(N[C@@H]4CCNC[C@@H]4F)nccn3c2SC(F)(F)F)cc1 [Example 298] | ≥ 10 | – | < 0.75 | > 90 | < 0.75 | < 0.01 | < 0.75
COc1cc(C(N)=O)ccc1NCC#Cc1cc2c(N[C@@H]3CCN(C)C[C@@H]3F)nccn2c1SC(F)(F)F [Example 299] | ≥ 10 | < 0.01 | < 0.75 | > 90 | < 0.75 | – | < 0.75
CNC(=O)c1ccc(NCC#Cc2cc3c(N[C@@H]4CCN(C)C[C@@H]4F)nccn3c2SC(F)(F)F)c(C#N)c1 [Example 301] | ≥ 10 | < 0.01 | 0.75 to 1.5 | > 90 | 0.75 to 1.5 | – | 0.75 to 1.5
CNC(=O)c1ccc(NCC#Cc2cc3c(N[C@@H]4CCN(C)C[C@@H]4F)nccn3c2SC(F)(F)F)c(F)c1 [Example 302] | ≥ 10 | < 0.01 | < 0.75 | > 90 | < 0.75 | – | < 0.75
CNC(=O)c1cnc(OC)c(NCC#Cc2nc3c(N[C@@H]4CNC[C@@H]4F)cccn3c2SC(F)(F)F)c1 [Example 305] | ≥ 10 | < 0.01 | < 0.75 | 80 to 90 | < 0.75 | – | < 0.75
CNC(=O)c1ccc(NCC#Cc2nc3c(N[C@@H]4CCN(C)C[C@@H]4F)cccn3c2SC(F)(F)F)c(Cl)c1 [Example 310] | ≥ 10 | < 0.01 | < 0.75 | > 90 | < 0.75 | – | < 0.75
CNC(=O)c1ccc(NCC#Cc2nc3c(N[C@@H]4CCN(C)C[C@@H]4F)cccn3c2SC(F)(F)F)c(F)c1 [Example 311] | 5 to 8 | < 0.01 | < 0.75 | > 90 | < 0.75 | – | < 0.75
CNC(=O)c1cnc(OC)c(NCC#Cc2cc3c(N[C@@H]4CNC[C@@H]4F)nccn3c2SC(F)(F)F)c1 [Example 313] | ≥ 10 | < 0.01 | 0.75 to 1.5 | 80 to 90 | 0.75 to 1.5 | – | 0.75 to 1.5
CN1CC[C@@H](Nc2cccn3c(SC(F)(F)F)c(C#CCNc4ccc(C(N)=O)cc4)nc23)[C@@H](F)C1 [Example 314] | ≥ 10 | < 0.01 | < 0.75 | > 90 | < 0.75 | – | < 0.75

More lines, main results first:

IC50 (H1299 p53 R273H) [µM] | Kd ([1]; SPR, p53 Y220C) [µM] | AC50 (p53 Y220C) [µM] | Emax (p53 Y220C) [%] | IC50 (H1299 p53 Y220C) [µM] | Kd [1] [µM] | SMILES | IC50 (NUGC3 p53 Y220C) [µM]
≥ 10 | < 0.01 | 0.75 to 1.5 | 80 to 90 | < 0.75 | – | CN1CC[C@@H](Nc2cccn3c(SC(F)(F)F)c(C#CCNc4ccc(P(C)(C)=O)cc4)nc23)[C@@H](F)C1 [Example 315] | < 0.75
≥ 10 | < 0.01 | < 0.75 | > 90 | < 0.75 | – | CCNC(=O)c1ccc(NCC#Cc2nn3c(N[C@@H]4CCN(C)C[C@@H]4F)cccc3c2SC(F)(F)F)c(OC)c1 [Example 316] | < 0.75
≥ 10 | 0.01 to 0.1 | > 3 | 70 to 80 | > 3 | – | CNC(=O)c1ccc(OC)c(NCC#Cc2nc3c(N[C@@H]4CCN(C)C[C@@H]4F)cccn3c2SC(F)(F)F)c1F [Example 320] | > 3
≥ 10 | < 0.01 | 0.75 to 1.5 | > 90 | 0.75 to 1.5 | – | CNC(=O)c1ccc(NCC#Cc2nc3c(N[C@@H]4CN(C)C[C@@H]4F)nccn3c2SC(F)(F)F)c(OC)c1 [Example 323] | 0.75 to 1.5
≥ 10 | < 0.01 | < 0.75 | > 90 | < 0.75 | – | CNC(=O)c1ccc(NCC#Cc2cc3c(N[C@@H]4CN(C)C[C@@H]4F)nccn3c2SC(F)(F)F)c(OC)c1 [Example 325] | < 0.75
≥ 10 | < 0.01 | < 0.75 | > 90 | < 0.75 | – | CNC(=O)c1ccc(OC)c(NCC#Cc2cc3c(N[C@@H]4CCNC[C@@H]4F)nccn3c2SC(F)F)c1 [Example 326] | < 0.75
≥ 10 | < 0.01 | < 0.75 | > 90 | < 0.75 | – | CNC(=O)c1cnc(OC)c(NCC#Cc2cc3c(N[C@@H]4CN(C)C[C@@H]4F)nccn3c2SC(F)F)c1 [Example 328] | < 0.75
≥ 10 | < 0.01 | < 0.75 | > 90 | < 0.75 | – | CNC(=O)c1cnc(OC)c(NCC#Cc2cc3c(N[C@@H]4CN(C)C[C@@H]4F)nccn3c2SC(F)(F)F)c1 [Example 330] | < 0.75
≥ 10 | < 0.01 | < 0.75 | > 90 | < 0.75 | – | CNC(=O)c1ccc(OC)c(NCC#Cc2cc3c(N[C@@H]4CN(C)C[C@@H]4F)nccn3c2SC(F)F)c1 [Example 331] | < 0.75
≥ 10 | < 0.01 | 1.5 to 3 | 80 to 90 | 1.5 to 3 | – | CNC(=O)c1ccc(OC)c(NCC#Cc2cc3c(N[C@@H]4CN(C)C[C@@H]4F)nccn3c2SC(F)F)n1 [Example 332] | > 3
≥ 10 | < 0.01 | < 0.75 | > 90 | < 0.75 | – | CNC(=O)c1ccc(OC)c(NCC#Cc2cc3c(N[C@@H]4CCN(C)C[C@@H]4F)nccn3c2SC(F)F)n1 [Example 333] | < 0.75
≥ 10 | 0.01 to 0.1 | > 3 | 80 to 90 | 1.5 to 3 | – | CNS(=O)(=O)c1ccc(OC)c(NCC#Cc2cc3c(N[C@@H]4CCN(C)C[C@@H]4F)nccn3c2SC(F)F)c1 [Example 334] | > 3
≥ 10 | < 0.01 | 1.5 to 3 | 80 to 90 | 1.5 to 3 | – | CNS(=O)(=O)c1ccc(OC)c(NCC#Cc2cc3c(N[C@@H]4CCN(C)C[C@@H]4F)nccn3c2SC(F)(F)F)c1 [Example 335] | 1.5 to 3
< 5 | < 0.01 | < 0.75 | > 90 | < 0.75 | – | CNC(=O)c1cc(F)c(OC)c(NCC#Cc2cc3c(N[C@@H]4CCN(C)C[C@@H]4F)nccn3c2SC(F)(F)F)c1 [Example 337] | < 0.75
≥ 10 | < 0.01 | < 0.75 | 80 to 90 | < 0.75 | – | COc1cc(S(C)(=O)=O)ccc1NCC#Cc1nn2c(N[C@@H]3CCN(C)C[C@@H]3F)cccc2c1SC(F)(F)F [Example 363] | < 0.75

Source: patent US20260374766A1, “METHODS FOR TREATING CANCER” (Antares Therapeutics, Inc., priority 2022, published 2026)
